# Experimental data as given in patent US20260184707A1, “PHARMACEUTICAL COMPOUNDS FOR THE TREATMENT OF COMPLEMENT MEDIATED DISORDERS” (ALEXION PHARMACEUTICALS, INC., priority 2022, published 2026).
# Biological target: T1, Human complement C1s enzyme (Homo sapiens, UniProt P09871)
# T1 construct: purified from human serum, Complement Technology, Inc; purchased Complement Technology, Inc; host or cells: human serum (plasma-derived native protein)
# T1 sequence (P09871 438-688 limits assumed): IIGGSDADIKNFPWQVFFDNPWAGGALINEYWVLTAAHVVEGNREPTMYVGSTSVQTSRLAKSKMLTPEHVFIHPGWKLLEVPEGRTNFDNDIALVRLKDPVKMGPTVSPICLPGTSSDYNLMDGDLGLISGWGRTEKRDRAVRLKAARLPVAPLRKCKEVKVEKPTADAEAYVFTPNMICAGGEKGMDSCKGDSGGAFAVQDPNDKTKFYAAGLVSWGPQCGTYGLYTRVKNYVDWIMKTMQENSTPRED
# T1 sequence (P09871 16-437 partner limits assumed): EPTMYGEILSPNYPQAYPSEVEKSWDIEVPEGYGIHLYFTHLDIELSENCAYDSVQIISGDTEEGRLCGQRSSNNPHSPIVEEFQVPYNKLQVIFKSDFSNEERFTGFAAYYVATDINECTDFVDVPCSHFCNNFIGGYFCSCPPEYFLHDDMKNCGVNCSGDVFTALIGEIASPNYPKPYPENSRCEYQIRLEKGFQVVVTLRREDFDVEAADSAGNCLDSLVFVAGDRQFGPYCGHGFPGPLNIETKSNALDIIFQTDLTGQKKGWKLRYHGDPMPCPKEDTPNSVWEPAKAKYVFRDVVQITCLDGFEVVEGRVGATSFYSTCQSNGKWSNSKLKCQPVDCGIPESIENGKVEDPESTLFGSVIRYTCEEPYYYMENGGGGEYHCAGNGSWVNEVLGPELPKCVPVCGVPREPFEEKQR
# Assay: Human C1s enzyme assay
# Type: biochemical
# Conditions: human complement C1s enzyme 1.16 nM, substrate Z-L-Lys-SBzl, A405; read-out: IC50 (Stars)
# Summary of the method: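 Thioesterase activity followed colorimetrically (DTNB, A405, 30-s reads) using 100 μM Z-L-Lys-SBzl substrate. Enzyme, human serum-derived C1s at 1.16 nM final, was incubated with test compound for 5 min, room temperature, pH 7.5 Tris buffer with 1 M NaCl. Rate-versus-concentration data fitted by nonlinear regression for IC50.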
row,IC50 [µM],Structure (SMILES)
1,< 0.1,"C[C@@H](Nc1cnc(N2CCOCC2)n(CC(=O)NCc2cc3cnccc3[nH]2)c1=O)c1ccc2oc3ccccc3c2c1 [Compound 344, (R)-N-((1H-pyrrolo[3,2-c]pyridin-2-yl)methyl)-2-(5-((1-(dibenzo[b,d]furan-2-yl)ethyl)-amino)-2-morpholino-6-oxo-pyrimidin-1(6H)-yl)acetamide]"
2,< 0.1,"C[C@@H](Nc1ncc(-c2ccccc2F)n(CC(=O)NCc2cc3cnccc3[nH]2)c1=O)c1ccc(-c2ccccc2F)cc1 [Compound 418, (R)—N-((1H-Pyrrolo[3,2-c]pyridine-2-yl)methyl)-2-(3-((1-(2′-fluoro-[1,1′-biphenyl]-4-yl)ethyl)amino)-6-(2-fluorophenyl)-2-oxopyrazin-1(2H)-yl)acetamide]"
3,< 0.1,"O=C(Cn1c(-c2ccccc2)ncc(NC(=O)c2ccc(Oc3ccccc3)s2)c1=O)NCc1cc2cnccc2[nH]1 [Compound 215, N-(1-(2-(((1H-pyrrolo[3,2-c]pyridine-2-yl)methyl)amino)-2-oxoethyl)-6-oxo-2-phenyl-1,6-dihydropyrimidin-5-yl)-5-phenoxythiophene-2-carboxamide]"
4,< 0.1,"C[C@@H](Nc1ncc(N2CCCCC2)n(CC(=O)NCc2cc3cnccc3[nH]2)c1=O)c1ccc2oc3ccccc3c2c1 [Compound 415, (R)-N-((1H-pyrrolo[3,2-c]pyridin-2-yl)methyl)-2-(3-((1-(dibenzo[b,d]furan-2-yl)ethyl)-amino)-2-oxo-6-(piperidin-1-yl)pyrazin-1(2H)-yl)acetamide]"
5,< 0.1,"Cc1ccc(F)c(-c2ncc(NCCCc3ccccc3)c(=O)n2CC(=O)NCc2cc3cnccc3[nH]2)c1 [Compound 439, N-((1H-pyrrolo[3,2-c]pyridin-2-yl)methyl)-2-(2-(2-fluoro-5-methylphenyl)-6-oxo-5-((3-phenylpropyl)amino)pyrimi-din-1(6H)-yl)acetamide]"
6,< 0.1,"O=C(Cn1c(-c2ccc(OC3COC3)cc2)ncc(NCc2ccc3c(c2)-c2ccccc2C3(F)F)c1=O)NCc1cc2cnccc2[nH]1 [Compound 138, N-((1H-pyrrolo[3,2-c]pyridin-2-yl)methyl)-2-(5-(((9,9-difluoro-9H-fluoren-3-yl)meth-yl)amino)-2-(4-(oxetan-3-yl-oxy)phenyl)-6-oxopyrimidin-1(6H)-yl)acetamide]"
7,0.1 to 1,"O=C(Cn1c(-c2ccccc2)ncc(NC(=O)NCc2ccccc2)c1=O)NCc1cc2cnccc2[nH]1 [Compound 79, N-((1H-pyrrolo[3,2-c]pyridin-2-yl)methyl)-2-(5-(3-benzyl-ureido)-6-oxo-2-phenylpyr-imidin-1(6H)-yl)acetamide]"
8,< 0.1,"O=C(Cn1c(-c2ccccc2)ncc(NCCCO[C@@H]2CO[C@H]3[C@@H]2OC[C@H]3O)c1=O)NCc1cc2cnccc2[nH]1 [Compound 190, N-((1H-pyrrolo[3,2-c]pyridine-2-yl)methyl)-2-(5-((3-(((3R,3aR,6R,6aR)-6-hydroxyhexahydrofuro[3,2-b]furan-3-yl)oxy)propyl)amino)-6-oxo-2-phenylpyrimidin-1(6H)-yl)acetamide]"
9,> 1,"O=C(Cn1c(-c2ccccc2)ncc(-c2ccccc2)c1=O)NCc1cc2cnccc2[nH]1 [Compound 25, N-((1H-pyrrolo[3,2-c]pyridin-2-yl)methyl)-2-(6-oxo-2,5-diphenylpyrimidin-1(6H)-yl)acetamide]"
10,< 0.1,"C[C@@H](Nc1cnc(C2=CCOCC2)n(CC(=O)NCc2cc3cnccc3[nH]2)c1=O)c1ccc2oc3ccccc3c2c1 [Compound 291, (R)-N-((1H-pyrrolo[3,2-c]pyr-idin-2-yl)methyl)-2-(5-((1-(dibenzo[b,d]furan-2-yl)ethyl)-amino)-2-(3,6-dihydro-2H-pyran-4-yl)-6-oxopyrimidin-1(6H)-yl)acetamide]"
11,< 0.1,"O=C(Cn1c(-c2ccc(OC3COC3)cc2)ncc(NCc2ccc3oc4ccccc4c3c2)c1=O)NCc1cc2cnccc2[nH]1 [Compound 130, N-((1H-pyrrolo[3,2-c]pyridine-2-yl)methyl)-2-(5-((dibenzo[b,d]furan-2-ylmethyl)amino)-2-(4-(oxetan-3-yloxy)phenyl)-6-oxopyrimidin-1(6H)-yl)acetamide]"
12,< 0.1,"COc1ccc(-c2ccc(C(=O)Nc3cnc(-c4ccccc4)n(CC(=O)NCc4cc5cnccc5[nH]4)c3=O)cc2)cc1 [Compound 98, N-(1-(2-(((1H-pyrrolo[3,2-c]pyridin-2-yl)methyl)amino)-2-oxoethyl)-6-oxo-2-phenyl-1,6-dihydropyrimidin-5-yl)-4′-methoxy-[1,1′-biphenyl]-4-carboxamide]"
13,0.1 to 1,"C[C@@H]1CN(c2ncc(N[C@H](C)c3ccc4oc5ccccc5c4c3)c(=O)n2CC(=O)NCc2cc3cnccc3[nH]2)C[C@H](C)O1 [Compound 305, N-((1H-pyrrolo[3,2-c]pyridin-2-yl)methyl)-2-(5-(((R)-1-(dibenzo[b,d]furan-2-yl)ethyl)-amino)-2-((2S,6R)-2,6-dimeth-ylmorpholino)-6-oxopyrimidin-1(6H)-yl)acetamide]"

# The remaining lines, values behind:
row,Structure (SMILES),IC50 [µM]
1,"O=C(Cn1c(-c2ccccc2)ncc(NC(=O)c2ncc(-c3ccccc3)o2)c1=O)NCc1cc2cnccc2[nH]1 [Compound 171, N-(1-(2-(((1H-pyrrolo[3,2-c]pyridine-2-yl)methyl)amino)-2-oxoethyl)-6-oxo-2-phenyl-1,6-dihydropyrimidin-5-yl)-5-phenyloxazole-2-carboxamide]",< 0.1
2,"O=C(Cn1c(-c2ccccc2F)cnc(N[C@H](CF)c2ccc3oc4ccccc4c3c2)c1=O)NCc1cc2cnccc2[nH]1 [Compound 443, (S)-N-((1H-pyrrolo[3,2-c]pyridin-2-yl)methyl)-2-(3-((1-(dibenzo[b,d]furan-2-yl)-2-fluoroethyl)amino)-6-(2-fluorophenyl)-2-oxopyrazin-1(2H)-yl)acetamide]",< 0.1
3,"C[C@@H](Nc1cnc(N2CCCC2)n(CC(=O)NCc2cc3cnccc3[nH]2)c1=O)c1coc(-c2ccccc2)n1 [Compound 481, (R)-N-((1H-pyrrolo[3,2-c]pyridin-2-yl)methyl)-2-(6-oxo-5-((1-(2-phenyloxazol-4-yl)-ethyl)amino)-2-(pyrrolidin-1-yl)pyrimidin-1(6H)-yl)acet-mide]",0.1 to 1
4,"O=C(Cn1c(-c2ccc(O[C@@H]3CO[C@H]4[C@@H]3OC[C@H]4O)cc2)ncc(NC(=O)c2ccc(-c3ccccc3)s2)c1=O)NCc1cc2cnccc2[nH]1 [Compound 264, N-(1-(2-(((1H-pyrrolo[3,2-c]pyridin-2-yl)methyl)amino)-2-oxoethyl)-2-(4-(((3R,3aR,6R, 6aR)-6-hydroxyhexahydrofuro [3,2-b]furan-3-yl)oxy)phenyl)-6-oxo-1,6-dihydropyrimidin-5-yl)-5-phenylthiophene-2-carboxamide]",< 0.1
5,"C[C@H](Nc1cnc(N2CCOCC2)n(CC(=O)NCc2cc3cnccc3[nH]2)c1=O)c1ccc2oc3ccccc3c2c1 [Compound 295, (S)-N-((1H-pyrrolo[3,2-c]pyr-idin-2-yl)methyl)-2-(5-((1-(dibenzo[b,d]furan-2-yl)ethyl)-amino)-2-morpholino-6-oxo-pyrimidin-1(6H)-yl)acetamide]",< 0.1
6,"O=C(Cn1c(-c2ccccc2)cnc(NC(=O)c2ccc(Oc3ccccc3)cc2)c1=O)NCc1cc2cnccc2[nH]1 [Compound 177, N-(4-(2-(((1H-pyrrolo[3,2-c]pyridin-2-yl)methyl)amino)-2-oxoethyl)-3-oxo-5-phenyl-3,4-dihydropyrazin-2-yl)-4-phen-oxybenzamide]",< 0.1
7,"C[C@@H](Nc1cnc(-c2cccc(Cl)c2)n(CC(=O)NCc2cc3cnccc3[nH]2)c1=O)c1ccc2oc3ccccc3c2c1 [Compound 293, (R)-N-((1H-pyrrolo[3,2-c]pyr-idin-2-yl)methyl)-2-(2-(3-chlorophenyl)-5-((1-(dibenzo [b,d]furan-2-yl)ethyl)amino)-6-oxopyrimidin-1(6H)-yl)acet-amide]",< 0.1
8,"C[C@@H](Nc1cnc(N2CC(O)C2)n(CC(=O)NCc2cc3cnccc3[nH]2)c1=O)c1ccc2oc3ccccc3c2c1 [Compound 386, (R)-N-((1H-pyrrolo[3,2-c]pyridin-2-yl)methyl)-2-(5-((1-(dibenzo[b,d]furan-2-yl)ethyl)-amino)-2-(3-hydroxyazetidin-1-yl)-6-oxopyrimidin-1(6H)-yl)acetamide]",> 1
9,"C[C@@H](Nc1cnc(N2C3CCC2COC3)n(CC(=O)NCc2cc3cnccc3[nH]2)c1=O)c1ccc2oc3ccccc3c2c1 [Compound 306, N-((1H-pyrrolo[3,2-c]pyridin-2-yl)methyl)-2-(2-(3-oxa-8-azabicyclo[3.2.1]octan-8-yl)-5-(((R)-1-(dibenzo[b,d]furan-2-yl)ethyl)amino)-6-oxopyrimi-din-1(6H)-yl)acetamide]",0.1 to 1
10,"C[C@@H](Nc1cnc(-c2cccs2)n(CC(=O)NCc2cc3cnccc3[nH]2)c1=O)c1ccc2oc3ccccc3c2c1 [Compound 327, (R)-N-((1H-pyrrolo[3,2-c]pyridin-2-yl)methyl)-2-(5-((1-(dibenzo[b,d]furan-2-yl)ethyl)-amino)-6-oxo-2-(thiophen-2-yl)pyrimidin-1(6H)-yl)acet-amide]",< 0.1
